Results taken from patent US10479780B2, “Aminopyrazole derivatives” (Chugai Seiyaku Kabushiki Kaisha, priority 2015, dated 2019).
Like-named read-outs stand apart in the source and are kept apart here.

Columns and labels:
Type in all cases: biochemical
human Yes1 enzyme = molecular target: T1, human Yes1 enzyme (Homo sapiens, UniProt P07947); assay: Yes1 enzyme inhibitory activity (time-resolved fluorometry, biotinylated peptide phosphorylation); conditions: read-out: YES_IC50
T1 construct: made in house
T1 sequence (P07947 whole entry): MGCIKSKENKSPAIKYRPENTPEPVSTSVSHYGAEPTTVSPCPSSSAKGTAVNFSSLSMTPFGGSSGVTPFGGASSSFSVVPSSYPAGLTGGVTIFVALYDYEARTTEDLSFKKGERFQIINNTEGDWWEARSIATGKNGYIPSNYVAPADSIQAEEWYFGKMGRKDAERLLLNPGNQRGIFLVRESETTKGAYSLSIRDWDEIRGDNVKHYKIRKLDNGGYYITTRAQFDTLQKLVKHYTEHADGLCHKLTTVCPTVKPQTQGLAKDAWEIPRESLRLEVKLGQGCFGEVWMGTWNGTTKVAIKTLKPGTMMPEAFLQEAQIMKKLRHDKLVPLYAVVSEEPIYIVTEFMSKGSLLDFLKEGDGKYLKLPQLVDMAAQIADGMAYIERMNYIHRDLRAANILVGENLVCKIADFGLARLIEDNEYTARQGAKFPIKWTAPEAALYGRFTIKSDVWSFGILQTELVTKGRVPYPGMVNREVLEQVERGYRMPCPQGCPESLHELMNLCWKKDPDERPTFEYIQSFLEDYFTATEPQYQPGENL
Outline: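 Inhibition was expressed against a compound-free control to give IC50, using TR-FRET read-out (Eu-cryptate anti-pTyr antibody, streptavidin-XL665).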

human Src enzyme = molecular target: T2, human Src enzyme (Homo sapiens, UniProt P12931); assay: Src enzyme inhibitory activity (time-resolved fluorometry, biotinylated peptide phosphorylation); conditions: read-out: SRC_IC50
T2 construct: purchased Carna Biosciences, Inc. 08-173
T2 sequence (P12931 whole entry): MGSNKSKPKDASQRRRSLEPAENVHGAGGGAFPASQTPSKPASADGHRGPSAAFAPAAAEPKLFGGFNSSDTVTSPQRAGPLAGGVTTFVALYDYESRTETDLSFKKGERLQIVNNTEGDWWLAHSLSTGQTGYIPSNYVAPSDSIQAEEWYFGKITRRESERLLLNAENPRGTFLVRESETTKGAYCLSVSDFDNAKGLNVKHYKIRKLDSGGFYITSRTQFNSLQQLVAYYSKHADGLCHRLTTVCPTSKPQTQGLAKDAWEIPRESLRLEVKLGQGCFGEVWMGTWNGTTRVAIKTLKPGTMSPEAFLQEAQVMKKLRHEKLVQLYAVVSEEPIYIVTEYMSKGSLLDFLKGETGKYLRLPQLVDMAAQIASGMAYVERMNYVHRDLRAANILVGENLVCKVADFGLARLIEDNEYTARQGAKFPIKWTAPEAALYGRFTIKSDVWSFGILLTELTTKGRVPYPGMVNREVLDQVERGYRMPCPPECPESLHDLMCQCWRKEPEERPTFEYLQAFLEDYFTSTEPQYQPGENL
Outline: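 Compounds were tested for blocking tyrosine phosphorylation of a biotinylated peptide substrate by recombinant human Src. Phosphorylated product was quantified by time-resolved fluorometry using europium cryptate and XL665 conjugates, and IC50 was calculated against the compound-free control.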

human Lck enzyme = molecular target: T3, human Lck enzyme (Homo sapiens, UniProt P06239); assay: Lck enzyme inhibitory activity (time-resolved fluorometry, biotinylated peptide phosphorylation); conditions: read-out: LCK_IC50
T3 construct: purchased Carna Biosciences, Inc. 08-170
T3 sequence (P06239 whole entry): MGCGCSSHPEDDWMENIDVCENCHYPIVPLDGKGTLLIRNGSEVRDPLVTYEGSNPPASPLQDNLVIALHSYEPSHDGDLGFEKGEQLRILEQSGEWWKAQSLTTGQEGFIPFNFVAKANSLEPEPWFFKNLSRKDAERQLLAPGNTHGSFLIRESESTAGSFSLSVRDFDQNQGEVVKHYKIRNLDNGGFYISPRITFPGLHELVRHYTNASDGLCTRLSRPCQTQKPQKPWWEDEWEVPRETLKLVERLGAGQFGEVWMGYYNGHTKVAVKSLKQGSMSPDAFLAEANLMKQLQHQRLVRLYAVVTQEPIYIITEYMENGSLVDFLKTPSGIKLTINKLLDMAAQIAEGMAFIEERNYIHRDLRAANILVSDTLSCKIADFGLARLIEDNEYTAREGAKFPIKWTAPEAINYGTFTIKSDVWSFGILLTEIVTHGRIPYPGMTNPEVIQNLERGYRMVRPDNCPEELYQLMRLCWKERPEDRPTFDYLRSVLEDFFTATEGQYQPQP
Outline: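 Readout pairs a europium cryptate-labelled anti-phosphotyrosine antibody with XL665-streptavidin, measured by time-resolved fluorescence. IC50 derived from percent inhibition against untreated controls.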

[1] = biotinylated peptide phosphorylation

Row | SMILES | IC50 (human Yes1 enzyme; [1]) [nM] | IC50 (human Src enzyme; [1]) [nM] | IC50 (human Lck enzyme; [1]) [nM] | IC50 (human Yes1 enzyme) [nM] | IC50 (human Src enzyme) [nM] | IC50 (human Lck enzyme) [nM]
1 | Cc1cc(Oc2cc(F)cc(F)c2)ncc1-n1ncc(C(=O)c2cc3cc(F)c(NS(C)(=O)=O)cc3[nH]2)c1N [Example 5-1-038, N-[2-[5-amino-1-[6-(3,5-difluorophenoxy)-4-methylpyridin-3-yl]pyrazole-4-carbonyl]-5-fluoro-1H-indol-6-yl]methanesulfonamide] |  |  |  | 16 | 270 | 66
2 | Cc1cc(Oc2cccc(F)c2F)cc(F)c1-n1ncc(C(=O)c2cc3cc(NS(C)(=O)=O)c(Cl)cc3[nH]2)c1N [Example 4-2-094, N-[2-[5-amino-1-[4-(2,3-difluorophenoxy)-2-fluoro-6-methylphenyl]pyrazole-4-carbonyl]-6-chloro-1H-indol-5-yl]methanesulfonamide] | 2 | 33 | 8.2 |  |  | 
3 | COc1cc2cc(C(=O)c3cnn(-c4cnc(Oc5ccccc5F)cc4C)c3N)[nH]c2cc1NS(=O)(=O)N1CCOCC1 [Example 4-12-001, N-{2-{5-amino-1-[6-(2-fluorophenoxy)-4-methylpyridin-3-yl]pyrazole-4-carbonyl}-5-methoxy-1H-indol-6-yl}morpholine-4-sulfonamide] | 2.9 | 140 | 45 |  |  | 
4 | CC(=O)N1CCC(c2cc3[nH]c(C(=O)c4cnn(-c5c(C)cc(Oc6ccccc6F)cc5F)c4N)cc3cc2C)CC1 [Example 5-1-138, 1-[4-[2-[5-amino-1-[2-fluoro-4-(2-fluorophenoxy)-6-methylphenyl]pyrazole-4-carbonyl]-5-methyl-1H-indol-6-yl]piperidin-1-yl] ethanone] |  |  |  | 3.1 | 68 | 42
5 | Cc1cc(Oc2ccccc2F)ncc1-n1ncc(C(=O)c2cc3cc(F)c(NS(=O)(=O)CCCF)cc3[nH]2)c1N [Example 4-2-020, N-[2-[5-amino-1-[6-(2-fluorophenoxy)-4-methylpyridin-3-yl]pyrazole-4-carbonyl]-5-fluoro-1H-indol-6-yl]-3-fluoropropane-1-sulfonamide] | 2 | 59 | 11 |  |  | 
6 | Cc1cc(-n2ncc(C(=O)c3cc4cc(C)c(N5C(=O)NC6(CCOCC6)C5=O)cc4[nH]3)c2N)ccc1Oc1ccccc1F [Example 5-1-469, 3-[2-[5-amino-1-[4-(2-fluorophenoxy)-3-methylphenyl]pyrazole-4-carbonyl]-5-methyl-1H-indol-6-yl]-8-oxa-1,3-diazaspiro[4.5] decane-2,4-dione] | 9 | 2700 | 100 |  |  | 
7 | Cc1cc(Oc2ccccc2F)ccc1-n1ncc(C(=O)c2cc3cc(OC(F)F)c(C4CCN(C(=O)CN)CC4)cc3[nH]2)c1N [Example 4-18-002, 2-amino-1-[4-[2-[5-amino-1-[4-(2-fluorophenoxy)-2-methylphenyl]pyrazole-4-carbonyl]-5-(difluoromethoxy)-1H-indol-6-yl]piperidin-1-yl]ethanone] | 5.9 | 29 | 15 |  |  | 
8 | Cc1cc(Oc2c(F)cccc2F)ncc1-n1ncc(C(=O)c2cc3cc(F)c(NS(=O)(=O)c4cccnc4)cc3[nH]2)c1N [Example 5-1-491, N-[2-[5-amino-1-[6-(2,6-difluorophenoxy)-4-methylpyridin-3-yl]pyrazole-4-carbonyl]-5-fluoro-1H-indol-6-yl]pyridine-3-sulfonamide] | 4.9 | 400 | 100 |  |  | 
9 | Cc1cc2cc(C(=O)c3cnn(-c4cnc(Oc5c(F)cccc5F)cc4C)c3N)[nH]c2cc1N1C(=O)NC2(CCC2)C1=O [Example 5-1-341, 7-[2-[5-amino-1-[6-(2,6-difluorophenoxy)-4-methylpyridin-3-yl]pyrazole-4-carbonyl]-5-methyl-1H-indol-6-yl]-5,7-diazaspiro[3.4]octane-6,8-dione] |  |  |  | 2.7 | 53 | 7.4

Further lines, results first:

Row | IC50 (human Yes1 enzyme; [1]) [nM] | IC50 (human Src enzyme; [1]) [nM] | IC50 (human Lck enzyme; [1]) [nM] | IC50 (human Yes1 enzyme) [nM] | IC50 (human Src enzyme) [nM] | IC50 (human Lck enzyme) [nM] | SMILES
10 | 0.61 | 15 | 2.8 |  |  |  | Cc1cc(Oc2ccccc2F)cc(F)c1-n1ncc(C(=O)c2cc3cc(NS(C)(=O)=O)c(F)cc3[nH]2)c1N [Example 4-2-099, N-[2-[5-amino-1-[2-fluoro-4-(2-fluorophenoxy)-6-methylphenyl]pyrazole-4-carbonyl]-6-fluoro-1H-indol-5-yl]methanesulfonamide]
11 | 0.58 | 17 | 2.5 |  |  |  | Cc1cc(Oc2c(F)cccc2F)ncc1-n1ncc(C(=O)c2cc3cc(OCC(F)F)c(N4C(=O)NC(C)(C)C4=O)cc3[nH]2)c1N [Example 4-23-032, 3-{2-{5-amino-1-[6-(2,6-difluorophenoxy)-4-methylpyridin-3-yl]pyrazole-4-carbonyl}-5-(2,2-difluoroethoxy)-1H-indol-6-yl}-5,5-dimethylimidazolidine-2,4-dione]
12 | 1.8 | 44 | 20 |  |  |  | Cc1cc(Oc2ccccc2F)ccc1-n1ncc(C(=O)c2cc3cc(OCC(F)F)c(NS(=O)(=O)N4CCOCC4)cc3[nH]2)c1N [Example 4-22-005, N-[2-[5-amino-1-[4-(2-fluorophenoxy)-2-methylphenyl]pyrazole-4-carbonyl]-5-(2,2-difluoroethoxy)-1H-indol-6-yl]morpholine-4-sulfonamide]
13 | 2 | 58 | 15 |  |  |  | Cc1cc2cc(C(=O)c3cnn(-c4c(C)cc(Oc5ccccc5)cc4F)c3N)[nH]c2cc1NS(C)(=O)=O [Example 4-2-060, N-[2-[5-amino-1-(2-fluoro-6-methyl-4-phenoxyphenyl)pyrazole-4-carbonyl]-5-methyl-1H-indol-6-yl]methanesulfonamide]
14 | 1.7 | 230 | 35 |  |  |  | Cc1cc(Oc2ccccc2F)ccc1-n1ncc(C(=O)c2cc3cc(F)c(N4C(=O)N[C@@H](Cc5ccccc5)C4=O)cc3[nH]2)c1N [Example 5-1-436, (5S)-3-[2-[5-amino-1-[4-(2-fluorophenoxy)-2-methylphenyl]pyrazole-4-carbonyl]-5-fluoro-1H-indol-6-yl]-5-benzylimidazolidine-2,4-dione]
15 | 0.43 | 9.5 | 9.1 |  |  |  | Cc1cc(Oc2ccccc2F)ccc1-n1ncc(C(=O)c2cc3cc(F)c(NS(=O)(=O)CC4COCCO4)cc3[nH]2)c1N (stereo not drawn) [Example 4-7-002, N-[2-[5-amino-1-[4-(2-fluorophenoxy)-2-methylphenyl]pyrazole-4-carbonyl]-5-fluoro-1H-indol-6-yl]-1-(1,4-dioxan-2-yl)methanesulfonamide]
16 | 1.1 | 5.4 | 2.5 |  |  |  | CC(C)N1CCC(c2cc3cc(C(=O)c4cnn(-c5ccc(Oc6ccccc6Cl)cc5F)c4N)[nH]c3cc2F)CC1 [Example 4-2-008, [5-amino-1-[4-(2-chlorophenoxy)-2-fluorophenyl]pyrazol-4-yl]-[6-fluoro-5-(1-propan-2-ylpiperidin-4-yl)-1H-indol-2-yl]methanone]
17 | 0.75 | 26 | 4.9 |  |  |  | Cc1cc(Oc2ccccc2F)ccc1-n1ncc(C(=O)c2cc3cc(F)c(NS(=O)(=O)CC(=O)N4CCN(C(C)C)CC4)cc3[nH]2)c1N [Example 4-10-003, N-[2-[5-amino-1-[4-(2-fluorophenoxy)-2-methylphenyl]pyrazole-4-carbonyl]-5-fluoro-1H-indol-6-yl]-2-oxo-2-(4-propan-2-ylpiperazin-1-yl)ethanesulfonamide 2,2,2-trifluoroacetate]
